The target in one data set is T1, KDM5A protein (Homo sapiens, UniProt P29375).
T1 construct: purchased BPS Bioscience 50110
The experiment in a line: Biochemical KDM5A inhibition assay (HTRF). The procedure:
Using 384-well white ProxiPlates (PerkinElmer), representative compounds were characterized for their inhibition of KDM5A using HTRF® technology (Cisbio Bioassays). Briefly, the test compounds, reference compounds, and DMSO control (typical compound concentration range 300 pM-10 μM, final assay concentration (FAC) of DMSO 0.5%) were added to 384-well plate by the Echo® acoustic dispensing platform (Labcyte). Three (3) μ1 of KDM5A protein (BPS Bioscience, Cat #50110)(10 or 20 nM FAC) in assay buffer (50 mM MES, 50 mM NaCl, 2 mM ascorbic acid, 0.01% v/v Tween 20, pH 6.5) was added to wells and plates were incubated for 10 minutes at room temperature. Then, 3 μl of biotin-labelled H3K4-me3 substrate (Anaspec Cat #AS-64357-1; 100 nM FAC), alpha-ketoglutaric acid ([…]) and Fe(II)SO4 (FAC 100 μM) in assay buffer was added and plates were incubated for 60 minutes at room temperature. The reaction was stopped with the addition of 6 μl of anti-H3-[…]-Eu(K) (Cisbio Bioassays Cat #61KA2KAE; 0.025 μg/ml FAC)+Streptavidin XL665 (Cisbio Bioassays Cat #610SAXLA; 0.5 μg/ml FAC) in HTRF detection buffer (Cisbio Bioassays Cat #62SDBRDD). The mixture was incubated for 90 minutes at room temperature before 340 nm excitation and measurement of dual emission at 620 nm and 665 nm. The raw data (a 665 nm and a 620 nm reading from each well) for individual assay plates were analyzed. The ratio of emissions was calculated using the following calculation: Ratio=(665 nm emission/620 nm emission)*10000. Using DMSO control (maximum response or 0% inhibition) and 1 μM reference control compound (minimum response or 100% inhibition), percentage inhibition values for each well were calculated using the median values of the minimum and maximum control wells and the following calculation: % Inhibition=(Well ratio-max control ratio)/(min control ratio-max control ratio)*100. Compound IC50 values were calculated from graphs of % inhibition plotted against compound concentration, using a four parameter curve fit.

A short description of data set [1]: Permeability in wild type MDCK cell lines (MDCK-WT). It counts as in vitro ADME. To be noted: dog, MDCK, pH 7.4, apical to basal, 10 μM test compound. The procedure: Wild type MDCKII cells were seeded onto an apical chamber 3 days prior to running the assay at a density of 2.3×10^5 cells per well. The integrity of cell monolayers was evaluated by examining the permeability of lucifer yellow assay using a Spectramax Gemini XS with excitation and emission at 426 nm and 538 nm respectively. Permeation of Lucifer Yellow should be ≤10×10^−6 cm/s for the experimental data to be accepted. The cell monolayers were preincubated in transport buffer (HBSS with CaCl2 and MgCl2)+25 mM HEPES, adjust to pH 7.4) at 37° C. or more than 20 min. Transport experiment was initiated by adding test compound solution (10 μM) to the apical chamber. Samples were obtained from basal chamber at 60 min, followed by addition of ice-cold acetonitrile containing internal standard. LC-MS/MS analysis was conducted as specified below. Standard calibration samples were prepared using the same matrix and analysed in the same manner. [table] […] Papp(cm/s)=(dCB/dt)×VB/(A×CA) dCB/dt is the slope of the cumulative concentration in basal side versus time VB is the volume of the basal compartment A is the area of the membrane surface area CA is the initial concentration in apical side

The mark [2] stands for this setting: 20 nM enzyme concentration, read-out: IC50 value.
Where [3] appears, read: comparative compounds, enzyme concentration not stated, read-out: IC50 values (μM) of comparative compound.
The mark [4] stands for this setting: comparative compounds, read-out: permeabilities in MDCK-WT of comparative compound.

The source of these data is patent publication US20220289751A1, “COMPOUND HAVING KDM5 INHIBITORY ACTIVITY AND PHARMACEUTICAL USE THEREOF” (ONO PHARMACEUTICAL CO., LTD., priority 2019, published 2022).

Molecules are shown by their SMILES. Where two headings read alike, the source gives them in different places.

T1 sequence (P29375 whole entry): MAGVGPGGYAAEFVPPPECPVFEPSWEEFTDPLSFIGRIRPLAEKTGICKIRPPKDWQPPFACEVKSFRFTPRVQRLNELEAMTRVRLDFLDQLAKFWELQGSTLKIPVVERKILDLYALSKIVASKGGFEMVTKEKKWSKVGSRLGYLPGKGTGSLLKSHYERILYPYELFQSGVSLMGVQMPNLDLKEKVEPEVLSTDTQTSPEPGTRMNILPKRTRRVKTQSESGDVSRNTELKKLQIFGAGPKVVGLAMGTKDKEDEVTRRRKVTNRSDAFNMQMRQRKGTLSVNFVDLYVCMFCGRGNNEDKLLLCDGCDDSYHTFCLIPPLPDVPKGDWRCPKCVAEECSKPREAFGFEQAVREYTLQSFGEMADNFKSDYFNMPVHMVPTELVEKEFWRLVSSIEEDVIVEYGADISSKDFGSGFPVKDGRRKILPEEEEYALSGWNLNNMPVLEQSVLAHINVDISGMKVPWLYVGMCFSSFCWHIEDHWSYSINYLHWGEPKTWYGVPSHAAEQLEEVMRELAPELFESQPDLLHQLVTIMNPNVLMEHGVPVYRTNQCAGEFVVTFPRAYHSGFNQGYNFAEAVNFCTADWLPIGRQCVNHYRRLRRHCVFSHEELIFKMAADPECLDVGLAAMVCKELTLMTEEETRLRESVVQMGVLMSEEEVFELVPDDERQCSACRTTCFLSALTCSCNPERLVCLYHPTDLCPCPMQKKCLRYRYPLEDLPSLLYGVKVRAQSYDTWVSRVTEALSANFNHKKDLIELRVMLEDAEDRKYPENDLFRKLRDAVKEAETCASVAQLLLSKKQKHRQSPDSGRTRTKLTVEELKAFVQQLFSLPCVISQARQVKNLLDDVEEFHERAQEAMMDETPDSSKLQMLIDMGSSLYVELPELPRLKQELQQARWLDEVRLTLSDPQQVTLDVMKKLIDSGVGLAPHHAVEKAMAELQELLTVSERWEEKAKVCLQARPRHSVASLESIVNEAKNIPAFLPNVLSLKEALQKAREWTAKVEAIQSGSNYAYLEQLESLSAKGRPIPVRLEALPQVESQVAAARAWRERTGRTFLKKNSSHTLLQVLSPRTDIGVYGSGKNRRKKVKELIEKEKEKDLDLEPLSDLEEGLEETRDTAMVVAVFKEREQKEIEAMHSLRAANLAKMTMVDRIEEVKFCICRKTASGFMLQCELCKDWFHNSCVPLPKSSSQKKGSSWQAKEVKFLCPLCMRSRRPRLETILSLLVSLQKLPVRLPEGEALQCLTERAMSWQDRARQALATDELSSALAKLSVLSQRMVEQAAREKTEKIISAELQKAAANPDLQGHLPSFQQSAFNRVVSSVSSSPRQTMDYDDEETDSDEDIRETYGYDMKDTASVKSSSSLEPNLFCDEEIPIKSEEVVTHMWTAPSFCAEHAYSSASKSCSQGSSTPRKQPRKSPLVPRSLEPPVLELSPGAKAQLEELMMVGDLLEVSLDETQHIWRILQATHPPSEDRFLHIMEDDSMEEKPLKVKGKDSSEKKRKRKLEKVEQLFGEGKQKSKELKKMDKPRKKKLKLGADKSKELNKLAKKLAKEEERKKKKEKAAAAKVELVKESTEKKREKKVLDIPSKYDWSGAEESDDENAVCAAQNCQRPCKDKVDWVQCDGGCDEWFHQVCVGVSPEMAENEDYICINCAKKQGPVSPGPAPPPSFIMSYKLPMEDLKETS

One may read the IC50 as the concentration that inhibits the measured activity by half. On to `CC(C)n1c(N(C)CCC2CCCO2)nn2c(-c3cn[nH]c3)cnc2c1=O` (single isomer, unassigned) [EXAMPLE 62, 3-Isopropyl-2-(methyl(2-(tetrahydrofuran-2-yl)ethyl)amino)-7-(1H-pyrazol-4-yl)imidazo[2,1-f][1,2,4]triazin-4(3H)-one], for which the IC50 on KDM5A protein (setting [2]) turned out to be 1 µM.

Consider `CC(c1ccccc1)c1cc(C(=O)N2CC3(C2)CN(C(=O)C2CC2)C3)n[nH]1` (single isomer, unassigned) [EXAMPLE 89, (6-(Cyclopropanecarbonyl)-2,6-diazaspiro[3.3]heptan-2-yl)(5-(1-phenylethyl)-1H-pyrazol-3-yl)methanone], for which the Papp A→B at 60 min, 10 μM in data set [1] (read-out: MDCK-WT (Papp)) was 9 ×10⁻⁶ cm/s.

In the case of `CC(C)c1cc(C(=O)N2CC3(C2)CN(C(=O)C2CC2)C3C)n[nH]1` (single isomer, unassigned) [EXAMPLE 92, [2-(Cyclopropanecarbonyl)-3-methyl-2,6-diazaspiro[3.3]heptan-6-yl]-(5-isopropyl-1H-pyrazol-3-yl)methanone], the IC50 at KDM5A protein (setting [2]) was 0.6 µM. Besides, the Papp A→B at 60 min, 10 μM in data set [1] (read-out: MDCK-WT (Papp)) turned out to be 8 ×10⁻⁶ cm/s.

In the case of `O=C(NC1CN(C(=O)c2cc(C3CC3)[nH]n2)C1)C1CC12CC2` (single isomer, unassigned) [EXAMPLE 104, N-(1-(5-cyclopropyl-1H-pyrazole-3-carbonyl)azetidin-3-yl)spiro[2.2]pentane-1-carboxamide], in data set [1] (read-out: MDCK-WT (Papp)), the Papp A→B at 60 min, 10 μM stood at 8 ×10⁻⁶ cm/s.

With `CC(C)c1c(-c2cnn(CC3CC3)c2)[nH]c2c(C#N)cnn2c1=O` [5-(1-(cyclopropylmethyl)-1H-pyrazol-4-yl)-6-isopropyl-7-oxo-4,7-dihydropyrazolo[1,5-a]pyrimidine-3-carbonitrile, reference compound], on KDM5A protein (setting [3]), the IC50 was 0.005 µM. Also, the Papp A→B at 60 min, 10 μM in data set [1] (setting [4]) turned out to be 5.6 ×10⁻⁶ cm/s.

With `CC(C)c1cc(C(=O)N2CC[C@@H](NC(=O)C3CC3)C2)[nH]n1` [(R)—N-(1-(3-isopropyl-1H-pyrazole-5-carbonyl)pyrrolidin-3-yl)cyclopropane carboxamide, reference compound], at KDM5A protein (setting [3]), the IC50 amounted to 0.02 µM. Besides, the Papp A→B at 60 min, 10 μM in data set [1] (setting [4]) is 4.9 ×10⁻⁶ cm/s.

Regarding `CC(C)n1c(N2CC(c3ccccc3)C2)nn2c(-c3cnc[nH]3)cnc2c1=O` [EXAMPLE 8, 7-(1H-imidazol-5-yl)-3-isopropyl-2-(3-phenylazetidin-1-yl)imidazo[2,1-f][1,2,4]triazin-4(3H)-one], the half-maximal inhibitory concentration (IC50) on KDM5A protein (setting [2]) is 0.04 µM. The Papp A→B at 60 min, 10 μM in data set [1] (read-out: MDCK-WT (Papp)) is 23 ×10⁻⁶ cm/s.

Turning to `CC(C)n1c(-c2cnn(CC3CC3)c2)nn2c(-c3cnc[nH]3)cnc2c1=O` [EXAMPLE 19, 2-(1-(Cyclopropylmethyl)-1H-pyrazol-4-yl)-7-(1H-imidazol-5-yl)-3-isopropylimidazo[2,1-f][1,2,4]triazin-4(3H)-one], the IC50 on KDM5A protein (setting [2]) stood at 0.03 µM.

For `CC(C)n1c(-c2cnn(CC3CC3)c2)nn2c(-c3cn[nH]c3)cnc2c1=O` [EXAMPLE 20, 2-(1-(Cyclopropylmethyl)-1H-pyrazol-4-yl)-3-isopropyl-7-(1H-pyrazol-4-yl)imidazo[2,1-f][1,2,4]triazin-4(3H)-one], at KDM5A protein (setting [2]), the IC50 stood at 0.04 µM. Further, the Papp A→B at 60 min, 10 μM in data set [1] (read-out: MDCK-WT (Papp)) amounted to 25 ×10⁻⁶ cm/s.

As for `CC(C)n1c(-c2ccc3c(ccn3C)c2)nn2c(-c3cn[nH]c3)cnc2c1=O` [EXAMPLE 21, 3-Isopropyl-2-(1-methyl-1H-indol-5-yl)-7-(1H-pyrazol-4-yl)imidazo[2,1-f][1,2,4]triazin-4(3H)-one], on KDM5A protein (setting [2]), the concentration for half-maximal inhibition (IC50) stood at 0.04 µM. Besides, in data set [1] (read-out: MDCK-WT (Papp)), the Papp A→B at 60 min, 10 μM turned out to be 10 ×10⁻⁶ cm/s.

In the case of `CC(C)n1c(-c2cccs2)nn2c(-c3cnc[nH]3)cnc2c1=O` [EXAMPLE 26, 7-(1H-Imidazol-5-yl)-3-isopropyl-2-(thiophen-2-yl)imidazo[2,1-f][1,2,4]triazin-4(3H)-one], the IC50 at KDM5A protein (setting [2]) was 0.2 µM. Moreover, the Papp A→B at 60 min, 10 μM in data set [1] (read-out: MDCK-WT (Papp)) was found to be 20 ×10⁻⁶ cm/s.

For `CC(C)n1c(-c2cccs2)nn2c(-c3cn[nH]c3)cnc2c1=O` [EXAMPLE 27, 3-Isopropyl-7-(1H-pyrazol-4-yl)-2-(thiophen-2-yl)imidazo[2,1-f][1,2,4]triazin-4(3H)-one], the IC50 on KDM5A protein (setting [2]) amounted to 0.05 µM.

Take `CCNC(=O)N1CC2(C1)CN(C(=O)c1cc(C(C)C)[nH]n1)C2` [EXAMPLE 41, N-Ethyl-6-(5-isopropyl-1H-pyrazole-3-carbonyl)-2,6-diazaspiro[3.3]heptane-2-carboxamide]: on KDM5A protein (setting [2]), the IC50 is 0.03 µM.

For the compound `CC(=O)NCCn1cc(-c2nn3c(-c4cn[nH]c4)cnc3c(=O)n2C(C)C)cn1` [EXAMPLE 47, N-(2-(4-(3-isopropyl-4-oxo-7-(1H-pyrazol-4-yl)-3,4-dihydroimidazo[2,1-f][1,2,4]triazin-2-yl)-1H-pyrazol-1-yl)ethyl)acetamide], the IC50 on KDM5A protein (setting [2]) is 0.05 µM.

For the compound `Cc1ccc(-n2cc(-c3cnc4c(=O)n(C(C)C)c(C)nn34)cn2)nc1` [EXAMPLE 67, 3-Isopropyl-2-methyl-7-(1-(5-methylpyridin-2-yl)-1H-pyrazol-4-yl)imidazo[2,1-f][1,2,4]triazin-4(3H)-one], the half-inhibitory concentration (IC50) at KDM5A protein (setting [2]) is 2.9 µM.

As to `CC(C)c1cc(C(=O)c2cnn3c(=O)c(C(C)C)c(-c4ccccc4)n(C)c23)n[nH]1` [EXAMPLE 68, 6-Isopropyl-3-(5-isopropyl-1H-pyrazole-3-carbonyl)-4-methyl-5-phenylpyrazolo[1,5-a]pyrimidin-7 (4H)-one], the IC50 on KDM5A protein (setting [2]) came out at 0.4 µM.

On to `O=C(c1cc(C2CCCCC2)[nH]n1)N1CC2(C1)CN(C(=O)C1CC1)C2` [EXAMPLE 73, (5-Cyclohexyl-1H-pyrazol-3-yl)(6-(cyclopropanecarbonyl)-2,6-diazaspiro[3.3]heptan-2-yl)methanone], for which, in data set [1] (read-out: MDCK-WT (Papp)), the Papp A→B at 60 min, 10 μM turned out to be 16 ×10⁻⁶ cm/s.

For the compound `CC(C)c1cc(C(=O)N2CC(NC(=O)C3CC3)C2)n[nH]1` [EXAMPLE 80, N-(1-(5-Isopropyl-1H-pyrazole-3-carbonyl)azetidin-3-yl)cyclopropanecarboxamide], on KDM5A protein (setting [2]), the IC50 worked out at 0.2 µM.

For `CC(C)n1cnc(C(=O)N2CC3(C2)CN(C(=O)C2CC2)C3)c1` [EXAMPLE 81, (6-(Cyclopropanecarbonyl)-2,6-diazaspiro[3.3]heptan-2-yl)(1-isopropyl-1H-imidazol-4-yl)methanone], at KDM5A protein (setting [2]), the IC50 turned out to be 0.1 µM.

With `CC(C)c1cc(C(=O)N2CC3(C2)CN(C(=O)C2(C)CC2)C3)n[nH]1` [EXAMPLE 96, (5-Isopropyl-1H-pyrazol-3-yl)(6-(1-methylcyclopropane-1-carbonyl)-2,6-diazaspiro[3.3]heptan-2-yl)methanone], the IC50 on KDM5A protein (setting [2]) turned out to be 0.03 µM.

Regarding `CC(C)c1cc(C(=O)N2CC3(C2)CN(C(=O)c2cccs2)C3)n[nH]1` [EXAMPLE 99, (5-Isopropyl-1H-pyrazol-3-yl)(6-(thiophene-2-carbonyl)-2,6-diazaspiro[3.3]heptan-2-yl)methanone], the Papp A→B at 60 min, 10 μM in data set [1] (read-out: MDCK-WT (Papp)) was found to be 20 ×10⁻⁶ cm/s.

As to `CC(=O)NCCn1cc(-c2nn3c(-c4c[nH]cn4)cnc3c(=O)n2C(C)C)cn1` [EXAMPLE 121, N-(2-(4-(7-(1H-Imidazol-4-yl)-3-isopropyl-4-oxo-3,4-dihydroimidazo[2,1-f][1,2,4]triazin-2-yl)-1H-pyrazol-1-yl)ethyl)acetamide], on KDM5A protein (setting [2]), the IC50 worked out at 0.09 µM.

`CC(C)c1cc(C(=O)N2CC3(C2)CN(C(=O)c2nn(C)cc2F)C3)n[nH]1` [EXAMPLE 126, [2-(4-Fluoro-1-methyl-pyrazole-3-carbonyl)-2,6-diazaspiro[3.3]heptan-6-yl]-(5-isopropyl-1H-pyrazol-3-yl)methanone]: the IC50 at KDM5A protein (setting [2]) was 0.008 µM.

`CC(C)c1cc(C(=O)N2CC3(CON(C(=O)C(C)(C)C)C3)C2)n[nH]1` [EXAMPLE 132, 1-[2-(5-Isopropyl-1H-pyrazole-3-carbonyl)-6-oxa-2,7-diazaspiro[3.4]octan-7-yl]-2,2-dimethyl-propan-1-one]: the Papp A→B at 60 min, 10 μM in data set [1] (read-out: MDCK-WT (Papp)) turned out to be 19 ×10⁻⁶ cm/s.
